Reference: paper PMC2131780, “A Tale of Switched Functions: From Cyclooxygenase Inhibition to M-Channel Modulation in New Diphenylamine Derivatives” (PLoS ONE, 2007)

How the values were obtained:
[1] = target: T1, Kv7.2/3 K+ channels (M-channels) (Homo sapiens, UniProt O43525+O43526); assay: Whole-cell patch-clamp of recombinant Kv7.2/3 channels in CHO cells; assay type: cell-based; details: for V50 of Kv7.2/3 activation: n = 5; for fold increase in Kv7.2/3 current amplitude: step −90 to −50 mV
T1 construct: expressed in transfected cells; host or cells: CHO cells
Experimental: Chinese hamster ovary (CHO) cells were grown in Dulbecco's modified Eagle's medium (DMEM) supplemented with 2 mM glutamine, 10% fetal calf serum and antibiotics. Briefly, 40,000 cells seeded on poly-D-lysine-coated glass coverslips (13 mm diameter) in a 24-multiwell plate were transfected with pIRES-CD8 (0.5 µg) as a marker for transfection, and with Kv7.2 (0.5 µg) and Kv7.3 (0.5 µg). For electrophysiology, transfected cells were visualized approximately 40 hours following transfection, using anti-CD8 antibody-coated beads. Transfection was performed using Fugene 6 (Roche, Indianapolis IN, USA) according to the manufacturer's protocol.
Voltage-clamp recordings in CHO cells were performed, using the whole-cell configuration of the patch-clamp technique. Signals were amplified using an Axopatch 200B patch-clamp amplifier (Molecular Devices, Sunnyvale, CA), sampled at 2 kHz and filtered at 800 Hz via a 4-pole Bessel low pass filter. […] The patch pipettes were pulled from borosilicate glass (Warner Instrument Corp, USA) with a resistance of 2–5 MΩ. For K^+ current recordings in CHO cells, the intracellular pipette solution contained (in mM): 130 KCl, 1 MgCl2, 5 K2ATP, 5 EGTA, 10 HEPES, adjusted with KOH to pH 7.4 (290 mOsm). The extracellular solution contained (in mM): 140 NaCl, 4 KCl, 1.8 CaCl2, 1.2 MgCl2, 11 glucose, 5.5 HEPES, adjusted with NaOH to pH 7.4 (310 mOsm). Series resistances (3–13 MΩ) were compensated (75–90%) and periodically monitored.
Data analysis was performed using the Clampfit program (pClamp 9.2, Molecular Devices), Microsoft Excel (Microsoft) and Prism 4.0 (GraphPad). Chord conductance (G) was calculated by using the following equation: [drawing 1] where I corresponds to the current amplitude measured at the end of the pulse and Vrev, the calculated reversal potential. G was estimated at various test voltages V and then, normalized to a maximal conductance value, Gmax. Activation curves were fitted by one Boltzmann distribution: [drawing 2] where V50 is the voltage at which the current is half-activated and s is the slope factor. All data were expressed as mean±SEM. Statistically significant differences were assessed by Student's t-test. Analysis of sEPSCs and sIPSCs was done using the Clampfit program (pClamp 9.2, Molecular Devices) and included evaluation of the individual events as well as the average event amplitude and the integral of the event (total charge transfer).

[2] = tested on: primary hippocampal neurons (glutamate and GABA release); assay: Spontaneous and miniature post-synaptic currents in cultured hippocampal neurons; assay type: cell-based, rat
Experimental: Because of their slow activation and their lack of inactivation, M-channels could modulate neuronal activity during repetitive spike discharge and tune neurotransmitter release. Figure 8 illustrates the effect of compound 15 on synaptic transmission and transmitter release. Spontaneous excitatory and inhibitory post-synaptic currents (sEPSCs and sIPSCs) were recorded from dense cultures of primary hippocampal neurons, using the voltage-clamp configuration of the whole-cell patch-clamp technique. […] Spontaneous EPSCs were recorded at −70 mV and were pharmacologically isolated by blocking GABAA receptor-mediated inhibitory post-synaptic currents (with 10 µM bicuculline and 30 µM picrotoxin). The sEPSCs were […] mediated by the activation of AMPA receptors and to a lesser extent of NMDA receptors, as they were blocked by 10 µM NBQX and 10 µM AP-5. Thus, sEPSCs reflect the synaptic release of glutamate. Under control conditions, sEPSCs appeared as repetitive bursts whose frequency was variable, ranging from 0.3 to 2 Hz and increasing with the density of the hippocampal culture. […] Consequently, compound 15 reduced by about 50% the total charge transfer as well as the charge transfer within the bursts (Figure 8D–F).
For hippocampal neuronal cultures, Sprague-Dawley rat embryos (E18) were removed by caesarian section and their hippocampi were dissected out. […]
Spontaneous excitatory postsynaptic currents (EPSCs) were recorded in the voltage-clamp configuration of the whole-cell patch-clamp technique at a holding potential of −70 mV as previously described; the extracellular solution contained (in mM) 160 NaCl, 2.5 KCl, 10 HEPES, 10 glucose, 2 CaCl2; pH 7.3 (325 mOsm), to which 30 µM picrotoxin and 10 µM bicuculline methyl iodide were added. […] Spontaneous inhibitory postsynaptic currents (IPSCs) were recorded at a holding potential of −70 mV; the extracellular solution contained (in mM) 160 NaCl, 2.5 KCl, 10 HEPES, 10 glucose, 2 CaCl2; pH 7.3 (325 mOsm), to which 10 µM NBQX and 10 µM AP-5 were added. […]

T1 sequence (O43526 whole entry): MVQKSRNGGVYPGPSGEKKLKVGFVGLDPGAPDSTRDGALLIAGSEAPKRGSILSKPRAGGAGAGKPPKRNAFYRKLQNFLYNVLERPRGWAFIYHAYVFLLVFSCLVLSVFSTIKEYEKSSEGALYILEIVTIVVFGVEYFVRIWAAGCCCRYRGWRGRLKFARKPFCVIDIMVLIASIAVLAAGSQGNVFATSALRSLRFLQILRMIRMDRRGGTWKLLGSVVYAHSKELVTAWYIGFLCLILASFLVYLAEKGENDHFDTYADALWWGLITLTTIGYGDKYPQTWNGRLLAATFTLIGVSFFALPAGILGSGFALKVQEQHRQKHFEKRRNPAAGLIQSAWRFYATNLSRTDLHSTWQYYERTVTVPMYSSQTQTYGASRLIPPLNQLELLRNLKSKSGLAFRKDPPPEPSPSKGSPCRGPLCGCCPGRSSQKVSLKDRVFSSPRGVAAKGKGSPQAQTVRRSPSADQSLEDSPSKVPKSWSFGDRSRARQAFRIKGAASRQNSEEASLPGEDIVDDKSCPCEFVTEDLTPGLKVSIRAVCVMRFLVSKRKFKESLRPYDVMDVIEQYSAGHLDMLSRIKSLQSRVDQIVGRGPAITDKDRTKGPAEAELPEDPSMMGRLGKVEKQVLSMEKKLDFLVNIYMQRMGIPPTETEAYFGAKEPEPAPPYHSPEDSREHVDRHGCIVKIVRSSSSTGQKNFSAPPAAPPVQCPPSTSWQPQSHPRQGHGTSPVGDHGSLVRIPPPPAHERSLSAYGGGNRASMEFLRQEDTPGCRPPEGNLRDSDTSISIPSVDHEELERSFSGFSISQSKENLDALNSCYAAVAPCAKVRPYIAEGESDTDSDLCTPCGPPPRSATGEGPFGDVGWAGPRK
T1 sequence (O43525 whole entry): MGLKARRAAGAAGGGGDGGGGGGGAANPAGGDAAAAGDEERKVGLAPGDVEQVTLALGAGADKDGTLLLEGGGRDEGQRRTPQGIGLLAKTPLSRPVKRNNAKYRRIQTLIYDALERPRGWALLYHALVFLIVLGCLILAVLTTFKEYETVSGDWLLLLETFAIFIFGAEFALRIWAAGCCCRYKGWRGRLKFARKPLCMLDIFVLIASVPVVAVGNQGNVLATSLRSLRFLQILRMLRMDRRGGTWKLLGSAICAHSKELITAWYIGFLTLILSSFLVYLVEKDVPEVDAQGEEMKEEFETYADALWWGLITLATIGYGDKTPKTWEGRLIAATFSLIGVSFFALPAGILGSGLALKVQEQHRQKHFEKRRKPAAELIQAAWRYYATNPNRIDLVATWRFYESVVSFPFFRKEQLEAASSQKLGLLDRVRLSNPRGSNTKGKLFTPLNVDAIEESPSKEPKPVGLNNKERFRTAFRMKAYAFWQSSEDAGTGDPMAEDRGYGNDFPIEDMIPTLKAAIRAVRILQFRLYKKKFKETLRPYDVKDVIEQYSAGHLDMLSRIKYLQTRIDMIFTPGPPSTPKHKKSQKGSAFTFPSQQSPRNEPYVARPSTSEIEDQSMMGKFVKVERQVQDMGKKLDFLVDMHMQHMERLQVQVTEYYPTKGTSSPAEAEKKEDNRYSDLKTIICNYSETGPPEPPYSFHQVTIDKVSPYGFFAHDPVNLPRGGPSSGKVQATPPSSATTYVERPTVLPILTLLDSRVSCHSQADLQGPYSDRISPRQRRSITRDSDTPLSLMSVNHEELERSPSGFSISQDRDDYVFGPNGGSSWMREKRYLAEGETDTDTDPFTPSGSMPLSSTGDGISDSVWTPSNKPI

## O=C(Cc1cc([N+](=O)[O-])ccc1Nc1c(Cl)cccc1Cl)OCCO [Compound 15]
[1]; 10 µM
  left-shift of Kv7.2/3 activation curve: −11 mV
  V50 of Kv7.2/3 activation: −43.6±9.0 mV
  fold increase in Kv7.2/3 current amplitude: 3.2 fold
[1]; 25 µM, at −20 mV
  activation kinetics t1/2 of Kv7.2/3: 0.171 ± 0.029 s
[1]; 25 µM, tail currents at −60 mV
  deactivation time constant τdeact of Kv7.2/3: 284 ± 43 ms
[1]; 50 µM
  left-shift of Kv7.2/3 activation curve: −21 mV
  V50 of Kv7.2/3 activation: −53.5±9.3 mV
  fold increase in Kv7.2/3 current amplitude: 9.1 fold
[1]; 200 µM
  left-shift of Kv7.2/3 activation curve: −31 mV
  V50 of Kv7.2/3 activation: −63.1±2.0 mV
[1]; Kv7.2/3 in CHO cells
  ΔV50 (mV), left-shift in half-activation potential: −31.0 mV
[1]; Kv7.2 and Kv7.3 coexpressed in CHO cells
  M-channels (Kv7.2/Kv7.3) effect (opener / blocker / inactive): opener
[1]; concentration-dependent left-shift ΔV50, sigmoidal fit, read-out: M-channel opener potency EC50
  EC50: 22 µM
[2]; 25 µM, holding −70 mV
  reduction of sEPSCs total charge transfer and charge transfer within bursts: about 50%
[2]; Rattus norvegicus, Hippocampal neuron, 25 µM, holding −70 mV, read-out: inhibition of sIPSCs frequency of spontaneous occurrence
  inhibition at 25 µM: > 98%
[2]; not shown
  effect on amplitude and kinetics of miniature EPSCs and IPSCs: did not affect
